Measurements as given in patent US20140271573A1, “PHARMACO-CELLULAR THERAPEUTIC METHOD FOR THE TREATMENT OF MUSCULAR DYSTROPHIES” (PONTIFICIA UNIVERSIDAD CATÓLICA DE CHILE, priority 2013, published 2014).
“Also recorded” adds a separate entry of the source.

Key:
mdx mice [1] = assay: Hematoxylin and eosin histology of tibialis anterior muscle of mdx mice; format: in vivo, mouse; settings: exercised mdx mice, 1 mg/kg i.p. 3 times per week for 3 months, vs vehicle
Experimental: (§1) FIG. 4. Andrographolide reduced skeletal muscle damage in mdx mice. To augment the extent of muscle fibrosis, 3 months old mdx mice were subjected to an exercise protocol for 3 months. Along this period one group was treated with 1 mg/kg andrographolide or vehicle (i.p. injections 3 time per week, 6 animal per group). […] B) Evans blue dye uptake in tibialis anterior muscle fibers from wild-type (WT), Vehicle-treated mdx and andrographolide-treated mdx mice. Nuclei were labeled with Hoechst. Mice were injected i.p. with 1% Evans blue dye 24 hours before muscle fixation. Bar corresponds to 200 μm. […] Values are expressed as mean±SD of three independent experiments, using eight mice for each experimental condition. (*, P<0.05 relative to WT mice; #, P<0.05 relative to Vehicle-treated mdx mice).
(§2) Control or mdx (12 weeks old) male mice of C57BL/10 ScSn strain were studied. The animals were kept at room temperature with a […] night-day cycle and fed with pellets and water ad libitum. Experimental exercise was performed for running the mice in a treadmill for three times per week, 30 minutes each time at 12 m/min during 3 or 4 months (De Luca et al., 2005; De Luca et al., 2003). […]
Architecture and histology were detected by hematoxylin-eosin (H&E) stain in transverse sections of muscle (Morales et al., 2011).

mdx mice [2] = assay: Evans blue dye uptake in tibialis anterior muscle fibers of mdx mice; format: in vivo, mouse; settings: exercised mdx mice, 1 mg/kg i.p. 3 times per week for 3 months
Experimental: as §1, §2
Animals were injected with Evans Blue dye (1% in PBS) and allowed to stay for 24 hours. […] The percentage of Evans blue dye positive fibers was manually counted in a blinded manner (Straub et al., 1997).

mdx mice [3] = assay: Collagen and fibronectin in tibialis anterior muscle of mdx mice, immunofluorescence and western blot; format: in vivo, mouse; settings: exercised mdx mice, 1 mg/kg i.p. 3 times per week for 3 months
Experimental: FIG. 5. Andrographolide reduced skeletal muscle fibrosis in mdx mice. To augment the extent of muscle fibrosis, 3 months old mdx mice were subjected to an exercise protocol for 3 months. Along this period one group was treated with 1 mg/kg andrographolide or vehicle (i.p. injections 3 time per week, 6 animal per group). A) Detection of collagen I and fibronectin by indirect immunofluorescence analysis in cryosections of tibialis anterior muscles from WT, Vehicle-treated mdx and andrographolide-treated mdx mice. Bar corresponds to 200 μm. B) fibronectin (FN) protein levels were detected by western blot analysis in extracts obtained from tibialis Anterior muscles from WT, Vehicle-treated mdx and andrographolide-treated mdx mice. […] GAPDH protein levels are shown as loading control; molecular weight markers are shown in kDa.
For immunoblot analyses, muscles were homogenized in 10 volume Tris-EDTA buffer with 1 mM PMSF as described previously (Morales et al., 2011). Briefly, proteins were determined in aliquots of muscle extracts using the bicinchoninic acid protein assay kit (Pierce, Ill.) using BSA as standard. Aliquots (50-100 μg) were subjected to SDS gel electrophoresis in 8% or 10% polyacrylamide gels, electrophoretically transferred onto PVDF membranes (Schleicher & Schuell) and probed with specific antibodies against fibronectin (Sigma-Aldrich, USA), collagen III (Rockland, USA and GAPDH (Millipore, USA), tubulin (Sigma-Aldrich, USA) and GAPDH (Sigma-Aldrich, USA). All immunoreactions were visualized by enhanced chemiluminescence kit (Pierce, USA). Densitometric analysis and quantification were performed using ImageJ software (NIH, USA) (Cabello-Verrugio et al., 2012).
as §2

CTGF = CTGF expression induced by TGF-β1 in C2C12 cells, northern blot; format: cell-based, mouse; settings: C2C12, 10 ng/ml TGF-β1, 50 μM andrographolide, 6 hrs
Source text: FIG. 1. […] (Vial et al., 2008).

mdx mice [4] = assay: Treadmill running test (step backs) in mdx mice; format: in vivo, mouse; settings: treated mdx mice, treadmill at 15 m/min
Experimental: FIG. 6. Andrographolide increased skeletal muscle strength and exercise performance in mdx mice. 3 months old Wild Type (WT) and mdx mice were subjected to an exercise protocol for 3 months to augment the extent of muscle fibrosis. Along this period one group was treated with 1 mg/kg andrographolide or vehicle (i.p. injections 3 time per week, 6 animal per group). A) tibialis anterior muscles from wild-type (WT), Vehicle-treated mdx and andrographolide-treated mdx mice were isolated to evaluate isometric specific force (mN/mm2) at different stimulation frequencies (pulses per second, pps). B) Bar graph showing tetanic specific force. Values are represented as percentage of specific isometric force generated by Wild type muscle (*, P<0.05 relative to WT mice; #, P<0.05 relative to Vehicle-treated mdx mice). C) Bar graph showing twitch force (*, P<0.05 relative to WT mice; #, P<0.05 relative to Vehicle-treated mdx mice). D) Mice were subjected to an exercise challenge into the treadmill at 15 meters/min for 5 minutes and the number of stebacks was counted (*, P<0.05 relative to WT mice; #, P<0.05 relative to Vehicle-treated mdx mice).
Mice were subjected to a running test during […] at 15 m/min in a treadmill. The number of times that mice were retarded (step backs) to the first ⅓ of the moving platform was counted (Cabello-Verrugio et al., 2012).

C=C1CC[C@@H]2[C@](C)(CO)[C@H](O)CC[C@@]2(C)[C@@H]1C/C=C1/C(=O)OC[C@H]1O [andrographolide]
damaged areas in muscle, hematoxylin and eosin staining (mdx mice [1]): striking smaller muscle damaged areas; also recorded: prevented the increase of damaged areas | Evans blue dye uptake in muscle fibers (mdx mice [2]): lower Evans blue dye uptake | accumulation of collagen type I, immunofluorescence staining (mdx mice [3]; tibialis anterior): strongly decrease | accumulation of fibronectin, immunofluorescence staining (mdx mice [3]; tibialis anterior): strongly decrease | fibronectin protein levels by western blot analysis (mdx mice [3]; tibialis anterior extracts): decreased | induction of CTGF expression in response to TGF-β1 (CTGF): reduced | number of stepbacks at the treadmill (mdx mice [4]): decreased
